Measurements published in US5629322A, “Cyclic amidine analogs as inhibitors of nitric oxide synthase” (priority 1995, dated 1997).
Structures can show the parent of a compound that is named as a salt. Where two headings read alike, the source gives them in different places.

Tests used:
ncNOS = ncNOS (Homo sapiens, UniProt P29475); experiment: biochemical
iNOS = iNOS (Homo sapiens, UniProt P35228); experiment: NOS activity assay, iNOS (L-[3H]citrulline formation); type: biochemical
Description: (§1) Assay Protocol for NOS activity
(§2) NOS activity is measured as the formation of L-[2,3,4,5-^3 H]Citrullinefrom L-[2,3,4,5-^3 H]Arginine. The incubation buffer (100 μL) contained; 100 mM TES, pH 7.5, 5 μM FAD, 5 μM FMN, 10 μM BH4, 0.5 mM NADPH, 0.5 mM DTT, 0.5 mg/mL BSA, 2 mM CaCl2, 10 μg/mL calmodulin (bovine), 1 μM L-Arg, 0.2 μCi L-[2,3,4,5-^3 H]Arg, and the inhibitor in aqueous DMSO (max. 5%). The reaction is initiated by addition of enzyme. Incubations are performed at room temperature for 30 minutes and stopped by the addition of an equal volume of quenching buffer consisting of 200 mM sodium citrate, pH 2.2, 0.02% sodium azide. Reaction products are separated by passing through a cation exchange resin and quantitated as cpm by scintillation counting.

ecNOS = ecNOS (Homo sapiens, UniProt P29474); experiment: NOS activity assay, ecNOS (L-[3H]citrulline formation); type: biochemical
Description: as §1, §2

Sequence of ncNOS (P29475 whole entry): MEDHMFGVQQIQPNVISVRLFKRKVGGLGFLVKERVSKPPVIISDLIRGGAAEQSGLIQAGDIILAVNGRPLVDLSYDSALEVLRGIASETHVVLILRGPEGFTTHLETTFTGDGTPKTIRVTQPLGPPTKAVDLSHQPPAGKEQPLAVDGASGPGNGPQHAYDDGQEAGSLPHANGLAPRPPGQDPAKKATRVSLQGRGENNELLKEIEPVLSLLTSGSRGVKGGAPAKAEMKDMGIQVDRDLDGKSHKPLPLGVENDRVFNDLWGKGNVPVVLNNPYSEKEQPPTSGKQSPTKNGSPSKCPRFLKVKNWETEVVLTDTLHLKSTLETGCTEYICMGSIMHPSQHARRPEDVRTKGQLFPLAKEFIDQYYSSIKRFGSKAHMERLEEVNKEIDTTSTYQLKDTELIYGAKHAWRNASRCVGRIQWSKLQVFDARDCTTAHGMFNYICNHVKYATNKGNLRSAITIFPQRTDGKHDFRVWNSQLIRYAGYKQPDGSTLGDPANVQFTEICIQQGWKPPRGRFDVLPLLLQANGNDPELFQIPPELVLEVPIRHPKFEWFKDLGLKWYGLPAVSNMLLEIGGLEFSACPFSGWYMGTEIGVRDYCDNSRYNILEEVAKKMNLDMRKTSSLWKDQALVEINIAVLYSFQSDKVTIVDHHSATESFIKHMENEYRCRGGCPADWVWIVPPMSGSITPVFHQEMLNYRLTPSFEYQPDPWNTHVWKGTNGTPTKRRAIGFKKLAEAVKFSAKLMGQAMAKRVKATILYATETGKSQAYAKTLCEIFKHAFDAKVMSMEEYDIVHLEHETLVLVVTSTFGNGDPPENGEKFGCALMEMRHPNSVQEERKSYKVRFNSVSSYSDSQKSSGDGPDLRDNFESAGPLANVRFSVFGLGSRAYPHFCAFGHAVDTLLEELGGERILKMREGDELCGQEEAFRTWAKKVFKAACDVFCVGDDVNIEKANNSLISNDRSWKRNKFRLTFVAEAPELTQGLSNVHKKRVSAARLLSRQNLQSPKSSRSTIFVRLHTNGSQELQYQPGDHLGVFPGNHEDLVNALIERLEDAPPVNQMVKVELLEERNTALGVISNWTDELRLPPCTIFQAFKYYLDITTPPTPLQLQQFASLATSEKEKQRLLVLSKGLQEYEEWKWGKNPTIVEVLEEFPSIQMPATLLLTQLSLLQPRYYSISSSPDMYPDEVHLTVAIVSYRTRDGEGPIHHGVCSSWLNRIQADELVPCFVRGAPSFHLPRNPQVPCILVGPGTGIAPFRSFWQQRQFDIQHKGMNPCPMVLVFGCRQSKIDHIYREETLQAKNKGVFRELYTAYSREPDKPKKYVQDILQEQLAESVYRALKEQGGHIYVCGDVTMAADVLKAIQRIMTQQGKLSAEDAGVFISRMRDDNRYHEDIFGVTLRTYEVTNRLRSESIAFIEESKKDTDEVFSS

IC50 (ncNOS; Table 4, read-out: IC50 ncNOS) | IC50 (iNOS; Table 4, read-out: IC50 iNOS) | IC50 (ecNOS; Table 4, read-out: IC50 ecNOS) | SMILES | further results
< 10 µM | ≤ 10 µM | > 50 µM | N=C(N)CCNC(=O)C1CCC(=N)N1 (centres unmarked) | –
– | – | – | CC(=O)NCC1CNC(=N)CC1C (mixture of isomers) [Table 5: CH, H, CH3, CH2NHAc, H, H, H, cis/trans-5-Acetamidomethyl-2-imino-4-methyl-piperidine, acetic acid salt] | IC50 (ncNOS; Table 5, read-out: IC50 ncNOS): ≤ 50 µM; IC50 (iNOS; Table 5, read-out: IC50 iNOS): ≤ 50 µM; IC50 (ecNOS; Table 5, read-out: IC50 ecNOS): > 50 µM
– | – | – | COC(=O)C1CNC(=N)CC1C (mixture of isomers) [Table 5: CH, H, CH3, CO2CH3, H, H, H, cis/trans-2-Imino-4-methyl-piperidine-5-carboxylic acid, methyl ester, acetic acid salt] | IC50 (ncNOS; Table 5, read-out: IC50 ncNOS): ≤ 50 µM; IC50 (iNOS; Table 5, read-out: IC50 iNOS): ≤ 10 µM; IC50 (ecNOS; Table 5, read-out: IC50 ecNOS): > 50 µM
– | – | – | CC1CC(=N)NCC1C(=O)O (mixture of isomers) [Table 5: CH, H, CH3, CO2H, H, H, H, cis/trans-2-Imino-4-methyl-piperidine-5-carboxylic acid, acetic acid salt] | IC50 (ncNOS; Table 5, read-out: IC50 ncNOS): ≤ 10 µM; IC50 (iNOS; Table 5, read-out: IC50 iNOS): ≤ 10 µM; IC50 (ecNOS; Table 5, read-out: IC50 ecNOS): ≤ 50 µM
– | – | – | CC(=O)NC1CNC(=N)CC1C (mixture of isomers) [Table 5: CH, H, CH3, NHAc, H, H, H, cis/trans-5-Acetamido-2-imino-4-methyl-piperidine, acetic acid salt] | IC50 (ncNOS; Table 5, read-out: IC50 ncNOS): > 50 µM; IC50 (iNOS; Table 5, read-out: IC50 iNOS): ≤ 50 µM; IC50 (ecNOS; Table 5, read-out: IC50 ecNOS): > 50 µM
– | – | – | CC1CC(=N)NCC1C1CCCCC1 (mixture of isomers) [cis/trans-5-Cyclohexyl-2-imino-4-methyl-piperidine, acetic acid salt] | IC50 (ncNOS; Table 5, read-out: IC50 ncNOS): > 50 µM; IC50 (iNOS; Table 5, read-out: IC50 iNOS): > 50 µM; IC50 (ecNOS; Table 5, read-out: IC50 ecNOS): > 50 µM
– | – | – | NC1=N[C@H]2CCCC[C@H]2CC1 (relative stereo) [Table 5: CH2, H, H, cis-(CH2)4, H, H, cis-Decahydro-2-iminoquinoline hydrochloride] | IC50 (ncNOS; Table 5, read-out: IC50 ncNOS): ≤ 1 µM; IC50 (iNOS; Table 5, read-out: IC50 iNOS): ≤ 1 µM; IC50 (ecNOS; Table 5, read-out: IC50 ecNOS): ≤ 50 µM
– | – | – | N=C1CC[C@@H]2CCCC[C@H]2N1 (relative stereo) [Table 5: CH2, H, H, trans-(CH2)4, H, H, trans-Decahydro-2-iminoquinoline hydrochloride] | IC50 (ncNOS; Table 5, read-out: IC50 ncNOS): ≤ 1 µM; IC50 (iNOS; Table 5, read-out: IC50 iNOS): ≤ 1 µM; IC50 (ecNOS; Table 5, read-out: IC50 ecNOS): ≤ 10 µM
– | – | – | CC[C@@H]1C(=N)NCC[C@@H]1C (relative stereo) [Table 5: CH, C2H5, CH3, H, H, H, H, cis-3-Ethyl-2-imino-4-methyl-piperidine, hydrochloride] | IC50 (ncNOS; Table 5, read-out: IC50 ncNOS): ≤ 10 µM; IC50 (iNOS; Table 5, read-out: IC50 iNOS): ≤ 50 µM; IC50 (ecNOS; Table 5, read-out: IC50 ecNOS): ≤ 50 µM
– | – | – | C[C@@H]1CC(=N)N[C@H](C)C1 (relative stereo) [Table 5: CH, H, CH3, H, CH3, H, H, cis-4,6-Dimethyl-2-imino-piperidine, acetic acid salt] | IC50 (ncNOS): ≤ 1 µM; IC50 (iNOS): ≤ 1 µM; IC50 (ecNOS): ≤ 1 µM
– | – | – | CCC[C@@H]1C(=N)NCC[C@@H]1C (relative stereo) [Table 5: CH, n-C3H7, CH3, H, H, H, H, cis-2-Imino-4-methyl-3-n-propyl-piperidine, hydrochloride] | IC50 (ncNOS; Table 5, read-out: IC50 ncNOS): ≤ 50 µM; IC50 (iNOS; Table 5, read-out: IC50 iNOS): ≤ 50 µM; IC50 (ecNOS; Table 5, read-out: IC50 ecNOS): > 50 µM
– | – | – | N=C1CN[C@@H]2CCCC[C@@H]2N1 (relative stereo) [Table 5: N, H, H, cis-(CH2)4, H, H, 2-Imino-decahydro-cis-quinoxaline] | IC50 (ncNOS; Table 5, read-out: IC50 ncNOS): > 50 µM; IC50 (iNOS): ≤ 10 µM; IC50 (ecNOS): > 50 µM
≤ 1 µM | ≤ 1 µM | ≤ 1 µM | CC1CC(N)=NC1C (single isomer, unassigned) [Table 4: H, CH3, CH3(A), H, H] | –
≤ 1 µM | ≤ 1 µM | – | CC1CC(N)=NC1C (single isomer, unassigned) [Table 4: H, CH3, CH3(B), H, H] | –
≤ 10 µM | ≤ 1 µM | > 50 µM | CCC1CN=C(N)C1C (centres unmarked) [Table 4: CH3, C2H5, H, H, H, 2-Imino-4-ethyl-3-methylpyrrolidine hydrochloride] | –
≤ 1 µM | ≤ 10 µM | ≤ 10 µM | CC1CN=C(N)C1C (centres unmarked) [Table 4: CH3, CH3, H, H, H, 2-Imino-3,4-dimethylpyrrolidine hydrochloride] | –
≤ 1 µM | ≤ 1 µM | ≤ 10 µM | CCC1CC(N)=NC1C (centres unmarked) [Table 4: H, C2H5, CH3, H, H, 2-Imino-4-ethyl-5-methylpyrrolidine hydrochloride] | –
≤ 10 µM | ≤ 1 µM | ≤ 50 µM | CCC1CN=C(N)C1 (centres unmarked) [Table 4: H, C2H5, H, H, H, 2-Imino-4-ethylpyrrolidine hydrochloride] | –
< 1 µM | ≤ 1 µM | < 1 µM | CC1CC(N)=NC1C (centres unmarked) [Table 4: H, CH3, CH3, H, H, 2-Imino-4,5-dimethylpyrrolidine hydrochloride] | –

IC50 (ncNOS; Table 4, read-out: IC50 ncNOS) | IC50 (iNOS; Table 4, read-out: IC50 iNOS) | IC50 (ecNOS; Table 4, read-out: IC50 ecNOS) | SMILES | further results
– | – | – | CC1CN=C(N)C1 (centres unmarked) [Table 4: H, CH3, H, H, H, 2-Imino-4-methylpyrrolidine hydrochloride] | IC50 (ncNOS): ≤ 1 µM; IC50 (iNOS): ≤ 10 µM; IC50 (ecNOS): ≤ 10 µM
≤ 10 µM | ≤ 10 µM | ≤ 50 µM | CCCC1N=C(N)CC1C (centres unmarked) [Table 4: H, CH3, n-C3H7, H, H, 2-Imino-4-methyl-5-propylpyrrolidine hydrochloride] | –
≤ 10 µM | > 50 µM | ≤ 50 µM | N=C1CC[C@@H]2CCCN12 [Table 4: H, H, (CH2)3, H, 5-(S)-2-Imino-1-aza-bicyclo(3.3.0)octane] | –
≤ 10 µM | ≤ 10 µM | ≤ 50 µM | CC1(C)CCC(=N)N1 [Table 4: H, H, (CH3)2, H, H, 2-Imino-5,5-dimethylpyrrolidine hydrochloride] | –
> 50 µM | > 50 µM | > 50 µM | CC(=O)OC[C@H]1CCC(=N)N1 [Table 4: H, H, (R)-CH2OAc, H, H, 2-Imino-5-(R)-acetyloxymethylpyrrolidine hydrochloride] | –
≤ 50 µM | ≤ 50 µM | ≤ 50 µM | N=C1CC[C@H](CO)N1 [Table 4: H, H, (R)-CH2OH, H, H, 2-Imino-5-(R)-hydroxymethylpyrrolidine hydrochloride] | –
≤ 10 µM | ≤ 50 µM | > 50 µM | CC(=O)OC[C@@H]1CCC(=N)N1 [Table 4: H, H, (S)-CH2OAc, H, H, 2-Imino-5-(S)-acetyloxymethylpyrrolidine hydrochloride] | –
≤ 50 µM | ≤ 10 µM | > 50 µM | N=C1CC[C@@H](CO)N1 [Table 4: H, H, (S)-CH2OH, H, H, 2-Imino-5-(S)-hydroxymethylpyrrolidine hydrochloride] | –
≤ 10 µM | ≤ 50 µM | ≤ 10 µM | CCC1CCC(=N)N1 (centres unmarked) [Table 4: H, H, C2H5, H, H] | –
– | ≤ 50 µM | – | O=C(O)C1CCC(=NC2NCCS2)N1 (centres unmarked) [Table 4: H, H, CO2H, H, 2-thiazolidinyl] | –
> 50 µM | > 50 µM | > 50 µM | Oc1ccc(CCNC2=NCCC2)cc1O [Table 4: H, H, H, H, C2 H4 Ph-3,4-(OH)2, 1-Aza-2-((3,4-dihydroxyphenyl)ethyl)amino-1-cyclopentene hydrochloride] | –
≤ 50 µM | ≤ 10 µM | > 50 µM | CC(C)C1CN=C(N)C1 (centres unmarked) [Table 4: H, i-C3H7, H, H, H, 2-Imino-4-(2-methyl-ethyl)pyrrolidine hydrochloride] | –
– | – | – | C[C@@H]1CCC(=N)NC1 [Table 5: CH2, H, H, (R)CH3, H, H, H, 5(R)-Methyl-2-iminopiperidine hydrochloride] | IC50 (iNOS): ≤ 1 µM; IC50 (ecNOS): ≤ 10 µM
– | – | – | C[C@H]1CCC(=N)NC1 [Table 5: CH2, H, H, (S)CH3, H, H, H, 5(S)-Methyl-2-iminopiperidine hydrochloride] | IC50 (iNOS): ≤ 10 µM; IC50 (ecNOS): ≤ 10 µM
– | – | – | CC1CCC(N)=NC1 (centres unmarked) [Table 5: CH2, H, H, CH3, H, H, H, 2-Imino-5-methylpiperidine hydrochloride] | IC50 (iNOS): ≤ 1 µM; IC50 (ecNOS): ≤ 10 µM
– | – | – | N=C1CCCCN1 [Table 5: CH2, H, H, H, H, H, H, 2-Iminopiperidine hydrochloride] | IC50 (iNOS): ≤ 1 µM; IC50 (ecNOS): ≤ 1 µM
– | – | – | C[C@@H]1CCNC(=N)C1 [Table 5: CH, H, (R)CH3, H, H, H, H, 4(R)-Methyl-2-iminopiperidine hydrochloride] | IC50 (iNOS): ≤ 1 µM
– | – | – | C[C@H]1CCNC(=N)C1 [Table 5: CH, H, (S)CH3, H, H, H, H, 4(S)-Methyl-2-iminopiperidine hydrochloride] | IC50 (iNOS): ≤ 1 µM
– | – | – | CC1CCN=C(N)C1 (centres unmarked) [Table 5: CH, H, CH3, H, H, H, H, 2-Imino-4-methylpiperidine hydrochloride] | IC50 (iNOS): ≤ 1 µM

SMILES | IC50 (ncNOS; Table 4, read-out: IC50 ncNOS) | IC50 (iNOS; Table 4, read-out: IC50 iNOS) | IC50 (ecNOS; Table 4, read-out: IC50 ecNOS) | further results
CC1CCN=C1N (centres unmarked) [Table 4: CH3, H, H, H, H, 2-Imino-3-methylpyrrolidine hydrochloride] | – | ≤ 10 µM | ≤ 10 µM | IC50 (ncNOS): ≤ 1 µM
CCC1N=C(N)CC1C (centres unmarked) [Table 4: H, CH3, C2H5, H, H, 2-Imino-5-ethyl-4-methylpyrrolidine hydrochloride] | – | ≤ 1 µM | ≤ 1 µM | IC50 (ncNOS): ≤ 1 µM
CC1CCC(N)=N1 (centres unmarked) [Table 4: H, H, CH3, H, H, 2-Imino-5-methylpyrrolidine hydrochloride] | – | – | ≤ 10 µM | IC50 (ncNOS): ≤ 10 µM; IC50 (iNOS): ≤ 10 µM
NC1=NCCC1 [Table 4: H, H, H, H, H, 1-Aza-2-imino-cyclopentane hydrochloride] | – | ≤ 10 µM | – | IC50 (ncNOS): ≤ 10 µM; IC50 (ecNOS): ≤ 10 µM
